Laboratory results as given in US6365625B1, “Compound for inhibiting HIV infectivity” (Procept, Inc., priority 1993, dated 2002).
In brackets after ≈: the same amount, converted by molar mass. Like-named read-outs stand apart in the source and are kept apart here.

Columns and labels:
gp120/CD4 = biological target: T1, gp120/CD4 (Homo sapiens, UniProt P01730); test: biochemical; type: binding
T1 construct: recombinant, soluble four-domain CD4 (sCD4) expressed in insect cells; host or cells: insect cells (sCD4)
Method: Polystyrene 96-well microtiter plates were treated with a 1 μg/ml solution of recombinant, soluble four-domain CD4 (sCD4) expressed in insect cells (100 μl/well) and allowed to incubate for two hours at room temperature. Plates were blocked for two hours at 4° C. with phosphate-buffered saline (PBS) containing 0.05% Tween-20 and 10 mg/ml bovine serum albumin (PBSTB, 200 μl/well), and then washed five times with PBS containing 0.05% Tween-20. Fifty microliters of 60 ng/ml recombinant gp120 (IIIB isolate) and 50 μl of each drug dilution in PBSTB were added to duplicate wells, and the plate was incubated overnight at 4° C. The plate was then washed five times with PBST and treated with a 210 μg/ml solution of monoclonal antibody NEA 9205 (100 gp120-III/well). This antibody recognizes the V3 loop region of gp120-IIIB. After incubation for 2 hours at 4° C., the plate was washed five times with PBST and treated with an anti-mouse IgGl antibody conjugated to alkaline phosphatase. After an additional incubation for 1 hour at 4° C., the plate was washed five times with PBST, treated with a p-nitrophenyl phosphate substrate solution, incubated for about 30 minutes at room temperature, and monitored for color development at 405 nm. […]

[1] = biological target: T2, OKT4 binding to recombinant sCD4 (Homo sapiens, UniProt P01730); test: Inhibition of monoclonal antibody OKT4 binding to CD4 (ELISA); settings: antibody 30 ng/ml
T2 construct: Plates coated with recombinant, soluble CD4 were treated with antibody
Method: (§1) A panel of related ELISA systems was used to evaluate the effect of test compounds on the binding of various monoclonal antibodies to recombinant sCD4 absorbed on plastic. Two of these antibodies, Leu3A and 19Thy, are directed against gp120 binding site on CD4. […] The ELISA formats were similar to those used to measure gp120 binding to CD4. Plates coated with recombinant, soluble CD4 were treated with antibody (30 ng/ml) and serial dilutions of drug. After incubation and washing, bound antibody was detected using an appropriate isotype-specific anti-immunoglobulin alkaline phosphatase conjugate.

[2] = biological target: T3, 19Thy binding to recombinant sCD4 (Homo sapiens, UniProt P01730); test: Inhibition of monoclonal antibody 19Thy binding to CD4 (ELISA); settings: antibody 30 ng/ml; read-out: IC50 MAb binding inhibition, 19Thy (converted)
T3 construct: Plates coated with recombinant, soluble CD4 were treated with antibody
Method: as §1

[3] = biological target: T4, Leu3A binding to recombinant sCD4 (Homo sapiens, UniProt P01730); test: Inhibition of monoclonal antibody Leu3A binding to CD4 (ELISA); settings: antibody 30 ng/ml; read-out: IC50 MAb binding inhibition, Leu3A (converted)
T4 construct: Plates coated with recombinant, soluble CD4 were treated with antibody
Method: as §1

HIV-1 14aPre = test: Drug combination studies, neutralization of HIV-1 14aPre; type: cell-based
[4] = test system: gp120-mediated syncytium formation; test: Inhibition of gp120-mediated syncytium formation (HL2/3 and HeLa-CD4-LTR-β-gal cells); settings: 48 hours; PIC 024.4 based on 100% polymer by weight
Method: The effect of test compound on syncytium formation was evaluated using an assay developed by Dr. George Pavlakis and coworkers (Ciminale, V. et al., AIDS Res. Hum. Retro-viruses 6:1281-1287 (1990)). […] The cultures were then incubated in the presence of drug for 48 hours at 37° C., fixed and stained with X-gal. Blue syncytia were counted using an inverted microscope, and percent inhibition and IC50 values were calculated.

HIV-1 (ADA) = test: microbe, parasite or virus in culture; type: cell-based; settings: Human immunodeficiency virus 1, Monocyte, monocytes
HIV-1 (JR-CSF) = type: cell-based
[5] = biological target: T5, gp120 binding to CD4 receptor on lymphocytes in whole blood (Homo sapiens, UniProt P01730); type: cell-based; settings: gp120-biotin 10 nM
T5 construct: the CD4 receptor expressed on the surface of lymphocytes in whole blood; from tissue; host or cells: freshly collected anticoagulated whole blood from normal donors
Method: This assay was used to measure the ability of test compounds to inhibit the binding of recombinant gp120 to the CD4 receptor expressed on the surface of lymphocytes in whole blood. Freshly collected, anticoagulated whole blood from normal donors (100 μl per tube) was treated with test compound and incubated for 2 hours at room temperature. The tubes were then treated with gp120-biotin (American Bio-Technology Products) to a final concentration of 10 nM, and incubated for an additional 3 hours at room temperature. Cells were then stained with fluorescein-labeled streptavidin (Becton Dickinson), treated with lysis buffer (Becton Dickinson), and washed with PBS containing 0.1% azide. Cells were then subjected to flow cytometric analysis on a FACScan™ flow cytometer (Becton Dickinson) and the mean fluorescence for the lymphocyte population was measured. Percent inhibition of fluorescence was determined relative to cells that were not treated with drug.

gp120 (SF2 isolate)/sCD4 = biological target: T6, gp120 (SF2 isolate)/sCD4 (Homo sapiens, UniProt P01730); type: binding
T6 construct: recombinant sCD4 was immobilized to the sensor surface
Text: This assay provided a direct measure of the ability of test compounds to inhibit the gp120/CD4 binding interaction. The BIAcore™ biosensor (Pharmacia Biosensor) allows for real-time interaction analysis without the need for labeling (Jonsson et al., BioTechniques 11:620-627 (1991); Malmquist, Nature 361:186-198 (1993)). Its operation is based on optical surface plasmon resonance (SPR) for detecting small changes in the refractive index on the surface of a thin gold film coated with a dextran matrix to which one ligand is immobilized. In the experiments described here, recombinant sCD4 was immobilized to the sensor surface by a standard amine coupling chemistry. Recombinant gp120 (SF2 isolate), alone or in the presence of test compound, was passed over the surface, and binding monitored by a change in “resonance units” (RU's). Percent inhibition was determined relative to RU levels observed in the absence of drug. A correction was made to account for the mass of the test article.

IIIB = settings: cited from earlier work
monocytotropic isolates = settings: cited from earlier work
[6] = biological target: T7, gp120 binding to CD4 receptor on CEM cells (Homo sapiens, UniProt P01730); type: cell-based; settings: recombinant gp120 (IIIB) 10 nM; PIC 024.4 based on 100% polymer by weight
T7 construct: the CD4 receptor expressed on the surface of lymphocytic cells; endogenous in cells; host or cells: CEM cells
Method: This assay was used to measure the ability of test compounds to inhibit the binding of recombinant gp120 to the CD4 receptor expressed on the surface of lymphocytic cells. Cells of the CEM line (a CD4+ human T cell leukemia line) were suspended at 3×10^6 cells/ml in RPMI 1640 medium supplemented with 10% fetal bovine serum (FBS) containing 0.002% sodium azide, and 100 μl was aliquoted to individual assay tubes. Serial dilutions of test compound in water were added (10 μl/tube) and the tubes incubated for 2 hours at 25° C. Next, recombinant gp120 (IIIB isolate) diluted in RPMI 1640 buffer was added to a final concentration of 10 nM (1.2 μg/ml) and the tubes incubated overnight at 37° C. Cells were then washed thoroughly with PBS containing 10% FBS and 0.01% sodium azide. V3-specific monoclonal antibody NEA9284 was added to a concentration of 1 μg/ml and incubated for 30 minutes on ice. The cells were washed thoroughly as before and stained with fluorescein-labeled goat anti-mouse immunoglobulin for 30 minutes on ice. The washed cells were analyzed for mean fluorescence on a FACScan™ flow cytometer (Becton Dickinson). Percent inhibition of fluorescence was determined relative to cells that were not treated with drug.

HIV-1, strain HTLV-IIIB = type: cell-based; settings: CEM-T4 cells, day 8; PIC 024.4 30% polymer by weight
Method: Dilutions were prepared in culture medium, and the compound was tested at concentrations ranging from 100 μg/ml to 0.003 μg/ml in half-log10 dilutions.
The assay was done in 96-well tissue culture plates using the CEM-T4 human T-lymphocyte cell line. The culture medium used was RPMI-1640 medium containing 25 mM N-[2-Hydroxyethyl]piperazine-n^1-[2-ethanesulfonic acid] (HEPES, Sigma Chemical Co.) and 2 mM L-glutamine, and supplemented with 10% fetal bovine serum, 2 mM L-glutamine, 50 units of penicillin G per ml, and 50 μg streptomycin sulfate per ml. CEM-T4 cells were treated with polybrene at a concentration of 2 μg/ml, and a 130 μl volume of cells (1×10^4 cells) was dispensed into each well. To one assay plate for each drug a 50 μl volume of each drug dilution (prepared as a 4×concentration) was added to five wells of cells, and the cells were incubated at 37° C. for two hours. […]
On the eighth day post-infection, the cells in each well were suspended and a 50-μl sample of each cell suspension was transferred to a new 96-well plate for use in the following assay. […] The absorbance at 590 nm was determined for each sample using a Molecular Devices Vmax microplate reader. […] When a dose-dependent effect for either CPE-inhibition or toxicity was seen, values for the 50% effective dose were calculated using the dose-effect analysis software of Chou and Chou (Elsevier-Biosoft).

O=C(O)C1=CC(=C(c2ccc(O)c(C(=O)O)c2)c2ccc(O)c(C(=O)O)c2)C=CC1=O [Aurintricarboxylic acid]
IC50 (gp120/CD4): ~2.37 µM | IC50 MAb binding inhibition, OKT4 [1]: did not affect | IC50 [2]: 206 µM | IC50 [3]: 294 µM

Cc1cn([C@H]2C[C@H](N=[N+]=[N-])[C@@H](CO)O2)c(=O)[nH]c1=O [AZT, zidovudine]
Table 8 readout of HIV-1 14aPre growth (HIV-1 14aPre; AZT 0.005 μM alone): 25 | Table 8 readout of HIV-1 14aPre growth (HIV-1 14aPre; AZT 0.01 μM alone): 17.5 | Table 8 readout of HIV-1 14aPre growth (HIV-1 14aPre; AZT 0.02 μM alone): 9.8 | IC50 syncytium inhibition (HL2/3) [4]: inactive | EC50 (HIV-1 (ADA); 168 h, read-out: EC50, Day 7): 0.005 µg/mL (≈ 0.0187 µM) | EC90 (HIV-1 (ADA); 168 h, read-out: EC90, Day 7): 0.02 µg/mL (≈ 0.0748 µM) | EC50 (HIV-1 (ADA); 336 h, read-out: EC50, Day 14): 0.003 µg/mL (≈ 0.0112 µM) | EC90 (HIV-1 (ADA); 336 h, read-out: EC90, Day 14): 0.01 µg/mL (≈ 0.0374 µM) | p24 levels (HIV-1 (JR-CSF); 0.004-50 μM, drug added 2 hours prior to infection): substantially reduced | Antiviral Activity ID50, JR-CSF (HIV-1 (JR-CSF); PHA blasts, PIC 024.4 30% polymer by weight): 0.001 µg/mL

dextran sulfate
IC50 gp120/whole blood binding inhibition [5]: ≥ 1000 µg/mL | IC50 BIAcore inhibition (gp120 (SF2 isolate)/sCD4): inactive | IC50 gp120/CD4 binding inhibition (ELISA) (gp120/CD4; recombinant gp120 IIIB, recombinant sCD4, PIC 024.4 based on 100% polymer by weight): inactive | IC50 syncytium inhibition (HL2/3) [4]: 0.9 µg/mL | Antiviral Activity ID50, IIIB (IIIB; AHT 8): 8 µg/mL | Antiviral Activity ID50, IIIB (IIIB; TM 11): 4 µg/mL | activity against many monocytotropic isolates (monocytotropic isolates): inactive | IC50 gp120/CEM binding inhibition [6]: 23 µg/mL

OC[C@@H]1CC[C@H](n2cnc3c(O)ncnc32)O1 [ddI, 2′,3′-Dideoxyinosine]
Table 8 readout of HIV-1 14aPre growth (HIV-1 14aPre; DDI 1.25 μM alone): 36.5 | Table 8 readout of HIV-1 14aPre growth (HIV-1 14aPre; DDI 5 μM alone): 11.2 | Table 8 readout of HIV-1 14aPre growth (HIV-1 14aPre; DDI 10 μM alone): 1.2 | Antiviral Activity ID50, IIIB (HIV-1, strain HTLV-IIIB): 1.2 µg/mL
